Reference: US9738634B2, “Heterocyclic amide compound and herbicide” (SYNGENTA PARTICIPATIONS AG, priority 2013, dated 2017)

Tests used:
Format in all cases: in vivo
Details in all cases: treatment dosage 320 g/ha
[1] = tested on: barnyard grass; experiment: Test Example 1: weedkilling efficacy, preemergent weed treatment in the submerged state; A: barnyard grass
Summary of the method: (§1)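 Pots of alluvial soil flooded 4 cm deep, sown with barnyard grass, bulrush and oval-leafed pondweed and transplanted with 2.5-leaf rice. Emulsified compound applied to the water surface on sowing day at stated g/ha; greenhouse 25–30 °C, effects assessed 3 weeks after treatment.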

[2] = tested on: bulrush; experiment: Test Example 1: weedkilling efficacy, preemergent weed treatment in the submerged state; B: bulrush
Summary of the method: as §1

[3] = tested on: oval-leafed pondweed; experiment: Test Example 1: weedkilling efficacy, preemergent weed treatment in the submerged state; C: oval-leafed pondweed
Summary of the method: as §1

[4] = tested on: transplanted rice; experiment: Test Example 1: preemergent weed treatment in the submerged state, effect on crop; a: transplanted rice
Summary of the method: as §1

[5] = tested on: barnyard grass; experiment: Test Example 2: weedkilling efficacy, growth period weed treatment in the submerged state; A: barnyard grass
Summary of the method: (§2)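 Barnyard grass, bulrush and oval-leafed pondweed sown in alluvial soil under 4 cm flooding, greenhouse 25 to 30° C. At 1-2 leaf stage, water-diluted emulsion applied to the water surface at stated g/ha dosages; effects scored 3 weeks later.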

[6] = tested on: bulrush; experiment: Test Example 2: weedkilling efficacy, growth period weed treatment in the submerged state; B: bulrush
Summary of the method: as §2

[7] = tested on: oval-leafed pondweed; experiment: Test Example 2: weedkilling efficacy, growth period weed treatment in the submerged state; C: oval-leafed pondweed
Summary of the method: as §2

[8] = tested on: crabgrass; experiment: Test Example 3: weedkilling efficacy through soil treatment; D: crabgrass
Summary of the method: (§3)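 Crop and weed responses were judged three weeks after a uniform surface spray of the water-diluted emulsion at the given g/ha rate. Seeds sat beneath about 1.5 cm of sterilized diluvial soil, and boxes stood in a greenhouse at 25 to 30° C.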

[9] = tested on: green foxtail; experiment: Test Example 3: weedkilling efficacy through soil treatment; E: green foxtail
Summary of the method: as §3

[10] = tested on: barnyard grass; experiment: Test Example 3: weedkilling efficacy through soil treatment; F: barnyard grass
Summary of the method: as §3

[11] = tested on: wild oat; experiment: Test Example 3: weedkilling efficacy through soil treatment; G: wild oat
Summary of the method: as §3

[12] = tested on: black-grass; experiment: Test Example 3: weedkilling efficacy through soil treatment; H: black-grass
Summary of the method: as §3

[13] = tested on: Italian ryegrass; experiment: Test Example 3: weedkilling efficacy through soil treatment; I: Italian ryegrass
Summary of the method: as §3

[14] = tested on: common wind-grass; experiment: Test Example 3: weedkilling efficacy through soil treatment; J: common wind-grass
Summary of the method: as §3

[15] = tested on: Indian mallow; experiment: Test Example 3: weedkilling efficacy through soil treatment; K: Indian mallow
Summary of the method: as §3

[16] = tested on: redroot pigweed; experiment: Test Example 3: weedkilling efficacy through soil treatment; L: redroot pigweed
Summary of the method: as §3

[17] = tested on: fig-leafed goosefoot; experiment: Test Example 3: weedkilling efficacy through soil treatment; M: fig-leafed goosefoot
Summary of the method: as §3

[18] = tested on: chickweed; experiment: Test Example 3: weedkilling efficacy through soil treatment; N: chickweed
Summary of the method: as §3

[19] = tested on: catchweed; experiment: Test Example 3: weedkilling efficacy through soil treatment; O: catchweed
Summary of the method: as §3

[20] = tested on: birds-eye speedwell; experiment: Test Example 3: weedkilling efficacy through soil treatment; p: birds-eye speedwell
Summary of the method: as §3

[21] = tested on: directly sown rice; experiment: Test Example 3: soil treatment, effect on crop; b: directly sown rice
Summary of the method: as §3

[22] = tested on: corn; experiment: Test Example 3: soil treatment, effect on crop; c: corn
Summary of the method: as §3

[23] = tested on: soybean; experiment: Test Example 3: soil treatment, effect on crop; d: soybean
Summary of the method: as §3

[24] = tested on: wheat; experiment: Test Example 3: soil treatment, effect on crop; e: wheat
Summary of the method: as §3

[25] = tested on: beet; experiment: Test Example 3: soil treatment, effect on crop; f: beet
Summary of the method: as §3

[26] = tested on: rapeseed; experiment: Test Example 3: soil treatment, effect on crop; g: rapeseed
Summary of the method: as §3

[27] = tested on: crabgrass; experiment: Test Example 4: weedkilling efficacy by foliar treatment; D: crabgrass
Summary of the method: (§4)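 Seeds are spot-sown into sterilized diluvial soil and covered with about 1.5 cm of soil. After 14 days' greenhouse growth at 25 to 30° C, plants are sprayed on stems and leaves with diluted emulsion at the stated g/ha rate, then scored at 3 weeks.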

[28] = tested on: green foxtail; experiment: Test Example 4: weedkilling efficacy by foliar treatment; E: green foxtail
Summary of the method: as §4

[29] = tested on: barnyard grass; experiment: Test Example 4: weedkilling efficacy by foliar treatment; F: barnyard grass
Summary of the method: as §4

[30] = tested on: wild oat; experiment: Test Example 4: weedkilling efficacy by foliar treatment; G: wild oat
Summary of the method: as §4

[31] = tested on: black-grass; experiment: Test Example 4: weedkilling efficacy by foliar treatment; H: black-grass
Summary of the method: as §4

[32] = tested on: Italian ryegrass; experiment: Test Example 4: weedkilling efficacy by foliar treatment; I: Italian ryegrass
Summary of the method: as §4

[33] = tested on: common wind-grass; experiment: Test Example 4: weedkilling efficacy by foliar treatment; J: common wind-grass
Summary of the method: as §4

[34] = tested on: Indian mallow; experiment: Test Example 4: weedkilling efficacy by foliar treatment; K: Indian mallow
Summary of the method: as §4

[35] = tested on: redroot pigweed; experiment: Test Example 4: weedkilling efficacy by foliar treatment; L: redroot pigweed
Summary of the method: as §4

[36] = tested on: fig-leafed goosefoot; experiment: Test Example 4: weedkilling efficacy by foliar treatment; M: fig-leafed goosefoot
Summary of the method: as §4

[37] = tested on: chickweed; experiment: Test Example 4: weedkilling efficacy by foliar treatment; N: chickweed
Summary of the method: as §4

[38] = tested on: catchweed; experiment: Test Example 4: weedkilling efficacy by foliar treatment; O: catchweed
Summary of the method: as §4

[39] = tested on: directly sown rice; experiment: Test Example 4: foliar treatment, effect on crop; b: directly sown rice
Summary of the method: as §4

[40] = tested on: corn; experiment: Test Example 4: foliar treatment, effect on crop; c: corn
Summary of the method: as §4

[41] = tested on: soybean; experiment: Test Example 4: foliar treatment, effect on crop; d: soybean
Summary of the method: as §4

[42] = tested on: wheat; experiment: Test Example 4: foliar treatment, effect on crop; e: wheat
Summary of the method: as §4

[43] = tested on: beet; experiment: Test Example 4: foliar treatment, effect on crop; f: beet
Summary of the method: as §4

[44] = tested on: rapeseed; experiment: Test Example 4: foliar treatment, effect on crop; g: rapeseed
Summary of the method: as §4

## CC1=C(c2ccccc2)C(=O)N(C(C)(C)C(=O)Nc2ncccc2F)CO1 [B-2-24]
[1]
  A (barnyard grass) weedkilling efficacy grade: 2 (weed kill ratio 20% or more, less than 40%)
[2]
  B (bulrush) weedkilling efficacy grade: 5 (weed kill ratio 90% or more, (practically complete withering))
[3]
  C (oval-leafed pondweed) weedkilling efficacy grade: 3 (weed kill ratio 40% or more, less than 70%)
[4]
  a (transplanted rice) effect on crop grade: 0 (weed kill ratio 5% or less (practically no effect))
[5]
  A (barnyard grass) weedkilling efficacy grade: 1 (weed kill ratio 5% or more, less than 20%)
[6]
  B (bulrush) weedkilling efficacy grade: 4 (weed kill ratio 70% or more, less than 90%)
[7]
  C (oval-leafed pondweed) weedkilling efficacy grade: 3 (weed kill ratio 40% or more, less than 70%)
[8]
  D (crabgrass) weedkilling efficacy grade: 3 (weed kill ratio 40% or more, less than 70%)
[9]
  E (green foxtail) weedkilling efficacy grade: 3 (weed kill ratio 40% or more, less than 70%)
[10]
  F (barnyard grass) weedkilling efficacy grade: 3 (weed kill ratio 40% or more, less than 70%)
[11]
  G (wild oat) weedkilling efficacy grade: 0 (weed kill ratio 5% or less (practically no effect))
[12]
  H (black-grass) weedkilling efficacy grade: 0 (weed kill ratio 5% or less (practically no effect))
[13]
  I (Italian ryegrass) weedkilling efficacy grade: 0 (weed kill ratio 5% or less (practically no effect))
[14]
  J (common wind-grass) weedkilling efficacy grade: 3 (weed kill ratio 40% or more, less than 70%)
[15]
  K (Indian mallow) weedkilling efficacy grade: 0 (weed kill ratio 5% or less (practically no effect))
[16]
  L (redroot pigweed) weedkilling efficacy grade: 0 (weed kill ratio 5% or less (practically no effect))
[17]
  M (fig-leafed goosefoot) weedkilling efficacy grade: 0 (weed kill ratio 5% or less (practically no effect))
[18]
  N (chickweed) weedkilling efficacy grade: 3 (weed kill ratio 40% or more, less than 70%)
[19]
  O (catchweed) weedkilling efficacy grade: 0 (weed kill ratio 5% or less (practically no effect))
[20]
  P (birds-eye speedwell) weedkilling efficacy grade: 0 (weed kill ratio 5% or less (practically no effect))
[21]
  b (directly sown rice) effect on crop grade: 0 (weed kill ratio 5% or less (practically no effect))
[22]
  c (corn) effect on crop grade: 0 (weed kill ratio 5% or less (practically no effect))
[23]
  d (soybean) effect on crop grade: 0 (weed kill ratio 5% or less (practically no effect))
[24]
  e (wheat) effect on crop grade: 0 (weed kill ratio 5% or less (practically no effect))
[25]
  f (beet) effect on crop grade: 0 (weed kill ratio 5% or less (practically no effect))
[26]
  g (rapeseed) effect on crop grade: 0 (weed kill ratio 5% or less (practically no effect))
[27]
  D (crabgrass) weedkilling efficacy grade: 0 (weed kill ratio 5% or less (practically no effect))
[28]
  E (green foxtail) weedkilling efficacy grade: 1 (weed kill ratio 5% or more, less than 20%)
[29]
  F (barnyard grass) weedkilling efficacy grade: 0 (weed kill ratio 5% or less (practically no effect))
[30]
  G (wild oat) weedkilling efficacy grade: 0 (weed kill ratio 5% or less (practically no effect))
[31]
  H (black-grass) weedkilling efficacy grade: 0 (weed kill ratio 5% or less (practically no effect))
[32]
  I (Italian ryegrass) weedkilling efficacy grade: 0 (weed kill ratio 5% or less (practically no effect))
[33]
  J (common wind-grass) weedkilling efficacy grade: 1 (weed kill ratio 5% or more, less than 20%)
[34]
  K (Indian mallow) weedkilling efficacy grade: 0 (weed kill ratio 5% or less (practically no effect))
[35]
  L (redroot pigweed) weedkilling efficacy grade: 0 (weed kill ratio 5% or less (practically no effect))
[36]
  M (fig-leafed goosefoot) weedkilling efficacy grade: 4 (weed kill ratio 70% or more, less than 90%)
[37]
  N (chickweed) weedkilling efficacy grade: 2 (weed kill ratio 20% or more, less than 40%)
[38]
  O (catchweed) weedkilling efficacy grade: 3 (weed kill ratio 40% or more, less than 70%)
[39]
  b (directly sown rice) effect on crop grade: 0 (weed kill ratio 5% or less (practically no effect))
[40]
  c (corn) effect on crop grade: 0 (weed kill ratio 5% or less (practically no effect))
[41]
  d (soybean) effect on crop grade: 0 (weed kill ratio 5% or less (practically no effect))
[42]
  e (wheat) effect on crop grade: 0 (weed kill ratio 5% or less (practically no effect))
[43]
  f (beet) effect on crop grade: 0 (weed kill ratio 5% or less (practically no effect))
[44]
  g (rapeseed) effect on crop grade: 0 (weed kill ratio 5% or less (practically no effect))
